Source: ChEMBL document CHEMBL1828550, “Lead identification of β-lactam and related imine inhibitors of the molecular chaperone heat shock protein 90” (Bioorg Med Chem, 2011)
Calls of active or inactive are those of the source. No cut-off for these calls is given here.

Tests used:
[1] = target: T1, Heat shock protein HSP 90-alpha (Homo sapiens, UniProt P07900); experiment: Displacement of FITC-labeled geldanamycin from human recombinant HSP90alpha after 24 hrs by fluorescence displacement assay
MCF7 = experiment: Antiproliferative activity against human MCF7 cells assessed as cell viability after 72 hrs by MTT assay; format: functional, cell-based; details: MCF7, 72 h
[2] = target: T1, Heat shock protein HSP 90-alpha; experiment: Inhibition of Hsp90alpha in human MCF7 assessed as induction of proteasomal ER2alpha protein degradation at 50 uM after 24 hrs by Western blot analysis relative to control
[3] = target: T1, Heat shock protein HSP 90-alpha; experiment: Inhibition of Hsp90alpha in human MCF7 assessed as induction of proteasomal ER2alpha protein degradation at 100 uM after 24 hrs by Western blot analysis relative to control

| SMILES | IC50 [1] | IC50 (MCF7) | Activity [2] | Activity [3] |
| --- | --- | --- | --- | --- |
| CCc1cc(/C=N/c2ccc3c(c2)OCCO3)c(O)cc1O | 14.5 µM | > 100 µM | Active |  |
| COc1ccc([C@@H]2CC(=O)N2c2ccc3c(c2)OCCO3)c(OC)c1 | > 200 µM | 53 µM |  |  |
| CCc1cc(/C=N/c2ccc3c(c2)OCO3)c(O)cc1O | 22.1 µM | > 100 µM | Active |  |
| C=CCNC1=C2C[C@@H](C)C[C@H](OC)[C@H](O)[C@@H](C)/C=C(\C)[C@H](OC(N)=O)[C@@H](OC)/C=C\C=C(/C)C(=O)NC(=CC1=O)C2=O [TANESPIMYCIN] |  | 0.09 µM |  |  |
| CCc1cc([C@@H]2CC(=O)N2c2ccc(OC)cc2)c(O)cc1O | > 200 µM | 52 µM |  |  |
| CCc1cc([C@@H]2CC(=O)N2c2ccc3c(c2)OCCO3)c(O)cc1O | 5.6 µM | 48 µM | Active | Active |
| COc1ccc(OC)c([C@@H]2CC(=O)N2c2ccc3c(c2)OCCO3)c1 | > 200 µM | 54 µM |  |  |
| CCc1cc([C@@H]2[C@@H](c3ccccc3)C(=O)N2c2ccc3c(c2)OCCO3)c(O)cc1O | > 200 µM | > 100 µM |  |  |
| O=C1C[C@@H](c2ccc(O)cc2O)N1c1ccc2c(c1)OCCO2 | > 200 µM | 23 µM |  |  |
| CCc1cc([C@@H]2CC(=O)N2c2cc(OC)c(OC)c(OC)c2)c(O)cc1O | > 200 µM | 31 µM |  |  |
| CCc1cc([C@@H]2CC(=O)N2c2ccc3c(c2)OCO3)c(O)cc1O | > 200 µM | 31 µM |  |  |
